Data from PMC6779124 (ACS infectious diseases, 2018).

Biological target: Stk1 kinase domain (Staphylococcus aureus, UniProt A0A0H2XGG5)
Experiment: […]-ATP autoradiography, autophosphorylation and MBP phosphorylation
Type: biochemical
Conditions: […] kinase domain, […] MBP, […] ATP, […] MnCl2, pH […] °C

Row | Compound | 32P-ATP autoradiography, autophosphorylation and MBP phosphorylation | 32P-ATP autoradiography, autophosphorylation and MBP phosphorylation (inhibitor […])
1 | CN1CCN(c2ccc(Nc3nccc(-c4cnn5ncccc45)n3)cc2)CC1 [CAF045, N-(4-(4-Methylpiperazin-1-yl)phenyl)-4-(pyrazolo-[1,5-b]pyridazin-3-yl)pyrimidin-2-amine] | CAF045 and CAF077, displayed an intermediate phenotype with partial Stk1 inhibition | –
2 | CN1CCN(c2ccc(Nc3nccc(-c4cnn5ncccc45)n3)cc2F)CC1 [CAF052, N-(3-Fluoro-4-(4-methylpiperazin-1-yl)phenyl)-4-(pyrazolo[1,5-b]pyridazin-3-yl)pyrimidin-2-amine] | – | CAF052 and CAF078 robustly inhibited Stk1 kinase activity like the GW779439X control
3 | CN1CCN(c2cccc(Nc3nccc(-c4cnn5ncccc45)n3)c2)CC1 [CAF077, N-(3-(4-Methylpiperazin-1-yl)phenyl)-4-(pyrazolo-[1,5-b]pyridazin-3-yl)pyrimidin-2-amine] | CAF045 and CAF077, displayed an intermediate phenotype with partial Stk1 inhibition | –
4 | CN1CCN(c2ccc(Nc3nccc(-c4cnn5ncccc45)n3)cc2C#N)CC1 [CAF078, 2-(4-Methylpiperazin-1-yl)-5-((4-(pyrazolo-[1,5-b]-pyridazin-3-yl)pyrimidin-2-yl)amino)benzonitrile] | CAF052 and CAF078 robustly inhibited Stk1 kinase activity like the GW779439X control | –
